In patent US20250171459A1, “2-METHYL-4',5'-DIHYDROSPIRO[PIPERIDINE-4,7'-THIENO[2,3-C]PYRAN] DERIVATIVES AS INHIBITORS OF APOL1 AND METHODS OF USING SAME” (Vertex Pharmaceuticals Incorporated, priority 2022, published 2025):
pIC50: −log10 of the molar value.

target: T1, APOL1 (Homo sapiens, UniProt O14791); assay: MultiTox-Fluor Multiplex Cytotoxicity Assay in tet-inducible APOL1 T-REx-HEK293 cells (cell rescue, ratio of dead to live cells); assay type: cell-based; conditions: tet-inducible transgenic APOL1 T-REx-HEK293 cell lines, 50 ng/mL tet, 24 hours; read-out: IP50 (i.e., IC50 for cell proliferation)
T1 sequence (O14791 1-398 S342G/I384M): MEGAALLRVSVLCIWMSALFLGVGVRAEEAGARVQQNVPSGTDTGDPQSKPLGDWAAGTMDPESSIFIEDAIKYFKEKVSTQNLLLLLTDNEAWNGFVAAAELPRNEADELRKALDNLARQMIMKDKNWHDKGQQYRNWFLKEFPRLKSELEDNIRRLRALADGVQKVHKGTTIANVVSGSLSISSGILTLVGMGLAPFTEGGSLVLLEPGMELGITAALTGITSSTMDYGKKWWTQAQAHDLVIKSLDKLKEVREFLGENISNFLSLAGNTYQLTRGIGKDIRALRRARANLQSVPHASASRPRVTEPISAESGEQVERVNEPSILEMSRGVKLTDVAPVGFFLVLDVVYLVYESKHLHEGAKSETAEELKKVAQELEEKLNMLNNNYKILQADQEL
How it was run: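 T-REx-HEK293 cells with tet-inducible APOL1 were treated with compound (10 μM top, 10-point 3-fold dilution, duplicate) plus 50 ng/mL tetracycline for 24 h at 37° C, in DMEM with 2% tet-free FBS. MultiTox-Fluor protease signals gave a dead/live ratio, normalized to no tet (100% viability) and tet alone (0%).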

CCc1cc2c(s1)CCO[C@@]21CCN(Cc2cn(CC(C)(C)CO)nn2)[C@@H](C)C1 [Compound 135] and CCc1cc2c(s1)CCO[C@@]21CCN(Cc2cn(CCS(=O)(=O)C(C)(C)C)nn2)[C@@H](C)C1 [Compound 159] fall in the same range of pIC50: 6.30 to 7.00 for the first, 6.30 to 7.00 for the second.

C[C@H]1C[C@@]2(CCN1Cc1ccnnc1)OCCc1cc(CC(F)F)sc12 [Compound 569] and C[C@H]1C[C@@]2(CCN1Cc1cnn(CCO)c1)OCCc1cc(CC(F)F)sc12 [Compound 563] cannot be ordered by pIC50: over 7.00 for the first, over 7.00 for the second.

Compared with C[C@H]1C[C@@]2(CCN1Cc1cccc(Cl)c1O)OC[C@H](O)c1cc(Cl)sc12 [Compound 766, (2′S,4R,7R)-2-chloro-1′-[(3-chloro-2-hydroxy-phenyl)methyl]-2′-methyl-spiro[4,5-dihydrothieno[2,3-c]pyran-7,4′-piperidine]-4-ol], C[C@H]1C[C@@]2(CCN1Cc1ccc(N3CCCC3=O)cc1)OC[C@H](O)c1cc(Cl)sc12 [Compound 777] is higher in pIC50: 6.00 to 6.30 for the first, over 7.00 for the second. The second is the more potent here.

CCc1cc2c(s1)CCO[C@@]21CCN(C[C@H]2C[C@@H](NS(=O)(=O)c3ccccc3)C2)[C@@H](C)C1 [Compound 397] and CCc1cc2c(s1)CCO[C@@]21CCN(C[C@H]2C[C@@H](NS(=O)(=O)c3cnccc3Cl)C2)[C@@H](C)C1 [Compound 412] cannot be ordered by pIC50: over 7.00 for the first, over 7.00 for the second.

CCN(CC)C(=O)Cn1cc(CN2CC[C@]3(C[C@@H]2C)OCCc2c3sc(C(F)(F)F)c2CO)cn1 [Compound 904] and C[C@H]1C[C@@]2(CCN1Cc1cnn(CS(=O)(=O)N(C)C)c1)OCCc1c2sc(C(F)(F)F)c1CO [Compound 924] cannot be ordered by pIC50: over 7.00 for the first, over 7.00 for the second.

Compared with C[C@H]1C[C@@]2(CCN1CC1CNC(=O)C1)OCCc1cc(CC(F)F)sc12 (stereo partly shown) [Compound 621], C[C@H]1C[C@@]2(CCN1CC1CCC1)OCCc1cc(CC(F)F)sc12 [Compound 576] is lower in pIC50: over 7.00 for the first, 6.30 to 7.00 for the second. The first is the more potent here.

First: CCc1cc2c(s1)CCO[C@@]21CCN(C[C@H]2C[C@@H](NC(=O)C3CC(=O)N(C)C3)C2)[C@@H](C)C1 (stereo partly shown) [Compound 362]
Second: CCc1cc2c(s1)CCO[C@@]21CCN(C[C@H]2C[C@@H](NC(=O)CC3CC3(F)F)C2)[C@@H](C)C1 (stereo partly shown) [Compound 309]
The pIC50 of the first is lower: 6.30 to 7.00 for the first, over 7.00 for the second. The second is the more potent here.

CCc1cc2c(s1)CCOC21CCN(Cc2ccc(C(=O)NCCOCCO)nc2)CC1 [Compound 1063] and CCc1cc2c(s1)CCOC21CCN(Cc2ccc(C(=O)NCC3(C)CCOC3)nc2)CC1 (stereo not shown) [Compound 1062] fall in the same range of pIC50: 6.30 to 7.00 for the first, 6.30 to 7.00 for the second.

First: CCc1cc2c(s1)CCO[C@@]21CCN(CC2CN(C(=O)C(C)(C)O)C2)[C@@H](C)C1 [Compound 443]
Second: CCc1cc2c(s1)CCO[C@@]21CCN(CC2CN(C(=O)C(C)(C)C)C2)[C@@H](C)C1 [Compound 457]
The pIC50 of the first is higher: over 7.00 for the first, 6.00 to 6.30 for the second.

CCOCCOCC(O)Cn1cc(CN2CC[C@]3(C[C@@H]2C)OCCc2sc(CC)cc23)nn1 (stereo partly shown) [Compound 75] and CCc1cc2c(s1)CCOC21CCN(Cc2cn(CC(O)C3CCCO3)nn2)C(C)C1 (stereo not shown) [Compound 117] cannot be ordered by pIC50: over 7.00 for the first, over 7.00 for the second.

CCc1cc2c(s1)CCO[C@@]21CCN(CC2CN(C(=O)c3ccn(CO)n3)C2)[C@@H](C)C1 [Compound 475] and CCc1cc2c(s1)CCO[C@@]21CCN(CC2CN(C(=O)c3nnc(C)o3)C2)[C@@H](C)C1 [Compound 476] cannot be ordered by pIC50: over 7.00 for the first, over 7.00 for the second.

CCc1cc2c(s1)CCOC21CCN(Cc2cn(C3CCN(C(C)=O)CC3)nn2)CC1 [Compound 1116] and CCc1cc2c(s1)CCOC21CCN(Cc2cn(C(C)C(=O)NCC(C)O)nn2)CC1 (stereo not shown) [Compound 1119] fall in the same range of pIC50: 6.00 to 6.30 for the first, 6.00 to 6.30 for the second.

CCc1cc2c(s1)CCO[C@@]21CCN(Cc2cnc(N[C@@H](C)C(C)(C)O)nc2)[C@@H](C)C1 [Compound 213] and C[C@H]1C[C@@]2(CCN1Cc1cnc(NC(C)(C)CO)nc1)OCCc1sc(Cl)cc12 [Compound 515, 2-[[5-[[(2′S,4R)-2-chloro-2′-methyl-spiro[6,7-dihydrothieno[3,2-c]pyran-4,4′-piperidine]-1′-yl]methyl]pyrimidin-2-yl]amino]-2-methyl-propan-1-ol] cannot be ordered by pIC50: over 7.00 for the first, over 7.00 for the second.

First: CCc1cc2c(s1)CCOC21CCN(Cc2cn(CC3CNC(=O)O3)nn2)CC1 (stereo not shown) [Compound 1118]
Second: CCc1cc2c(s1)CCO[C@@]21CCN(Cc2cn(CC3(C)COC3)nn2)[C@@H](C)C1 [Compound 118]
The pIC50 of the first is lower: 6.00 to 6.30 for the first, 6.30 to 7.00 for the second.

First: CCc1cc2c(s1)CCO[C@@]21CCN(Cc2cn(CC3(CO)CCOCC3)nn2)[C@@H](C)C1 [Compound 79]
Second: CCc1cc2c(s1)CCO[C@@]21CCN(Cc2cn(Cc3cnn(C)n3)nn2)[C@@H](C)C1 [Compound 167]
The pIC50 of the first is lower: 6.30 to 7.00 for the first, over 7.00 for the second.

COC(=O)N[C@H]1C[C@@H](CN2CC[C@]3(C[C@@H]2C)OCCc2cc(CC(F)F)sc23)C1 [Compound 554] and CCS(=O)(=O)N[C@H]1C[C@@H](CN2CC[C@]3(C[C@@H]2C)OCCc2cc(CC(F)F)sc23)C1 [Compound 553] cannot be ordered by pIC50: over 7.00 for the first, over 7.00 for the second.

First: CCc1cc2c(s1)CCO[C@@]21CCN(C[C@H]2C[C@@H](NC(=O)c3ccc(C)nn3)C2)[C@@H](C)C1 [Compound 328]
Second: CCc1cc2c(s1)CCO[C@@]21CCN(C[C@H]2C[C@@H](NS(=O)(=O)CCCO)C2)[C@@H](C)C1 [Compound 417]
The pIC50 of the first is higher: 6.30 to 7.00 for the first, 6.00 to 6.30 for the second.

C[C@H]1C[C@@]2(CCN1Cc1cn(C)nn1)OCCc1cc(CC(F)F)sc12 [Compound 566] and C[C@H]1C[C@@]2(CCN1Cc1cn(CC(O)C(C)(C)O)nn1)OCCc1cc(CC(F)F)sc12 (stereo partly shown) [Compound 548] cannot be ordered by pIC50: over 7.00 for the first, over 7.00 for the second.

CCc1cc2c(s1)CCO[C@@]21CCN(Cc2cnn(CCS(C)(=O)=O)c2)[C@@H](C)C1 [Compound 268] and CCCc1cc2c(s1)CCO[C@@]21CCN(Cc2cnn(C)c2)[C@@H](C)C1 [Compound 520] cannot be ordered by pIC50: over 7.00 for the first, over 7.00 for the second.

Compared with C[C@H]1C[C@@]2(CCN1Cc1cccnc1)OCCc1c2sc(Cl)c1CO [Compound 757], C[C@H]1C[C@@]2(CCN1Cc1cccc(F)c1)OCCc1c2sc(Cl)c1CO [Compound 756] is lower in pIC50: over 7.00 for the first, 6.30 to 7.00 for the second.

C[C@H]1C[C@@]2(CCN1Cc1cnn(CCS(C)(=O)=O)c1)OCC(O)c1cc(C(F)(F)F)sc12 (single isomer, unassigned) [Compound 881] and C[C@H]1C[C@@]2(CCN1Cc1cnn(CC3CCOCC3)c1)OCCc1c2sc(C(F)(F)F)c1CO [Compound 905] cannot be ordered by pIC50: over 7.00 for the first, over 7.00 for the second.

First: Cc1cn2nc(CN3CC[C@]4(C[C@@H]3C)OCC(O)c3cc(Cl)sc34)cc2c(NC2CC2)n1 (mixture of isomers) [Compound 826, 2-chloro-1′-[[4-(cyclopropylamino)-6-methyl-pyrazolo[1,5-a]pyrazin-2-yl]methyl]-2′-methyl-spiro[4,5-dihydrothieno[2,3-c]pyran-7,4′-piperidine]-4-ol]
Second: C[C@H]1C[C@@]2(CCN1Cc1ccccn1)OCCc1cc(Cl)sc12 [Compound 668]
The pIC50 of the first is higher: over 7.00 for the first, 6.00 to 6.30 for the second. The first is the more potent here.

Cc1cc2c(s1)[C@]1(CCN(Cc3cnc(NC(C)(C)CO)nc3)[C@@H](C)C1)OCC2 [Compound 1025] and Cc1cc2c(s1)[C@]1(CCN(Cc3cn[nH]c3)[C@@H](C)C1)OCC2 [Compound 1024, (2′S, 7R)-2,2′-dimethyl-1′-(1H-pyrazol-4-ylmethyl)spiro[4,5-dihydrothieno[2,3-c]pyran-7,4′-piperidine]] cannot be ordered by pIC50: over 7.00 for the first, over 7.00 for the second.

Compared with CCc1cc2c(s1)CCO[C@@]21CCN(CC2CN(C(=O)[C@@H]3CSC(=O)N3)C2)[C@@H](C)C1 [Compound 467], CCc1cc2c(s1)CCO[C@@]21CCN(CC(F)F)[C@@H](C)C1 [Compound 294] is lower in pIC50: over 7.00 for the first, 6.00 to 6.30 for the second. The first is the more potent here.

Compared with Cn1cc(CN2CCC3(CC2)OCCc2sc(C(F)(F)F)cc23)cn1 [Compound 1167], CC1Cc2sc(Cl)cc2C2(CCN(Cc3cnn(C)c3)[C@@H](C)C2)O1 (single isomer, unassigned) [Compound 529, (2′S)-2-chloro-2′,6-dimethyl-1′-[(1-methylpyrazol-4-yl)methyl]spiro[6,7-dihydrothieno[3,2-c]pyran-4,4′-piperidine]] is higher in pIC50: 6.30 to 7.00 for the first, over 7.00 for the second.

C[C@H]1C[C@@]2(CCN1Cc1cn[nH]c1)OCCc1c2sc(C(F)(F)F)c1CO [Compound 873, [(2′S, 7R)-2′-methyl-1′-(1H-pyrazol-4-ylmethyl)-2-(trifluoromethyl)spiro[4,5-dihydrothieno[2,3-c]pyran-7,4′-piperidine]-3-yl]methanol] and CC(C)OC[C@@H](O)Cn1cc(CN2CC[C@]3(C[C@@H]2C)OCCc2c3sc(C(F)(F)F)c2CO)cn1 [Compound 956] cannot be ordered by pIC50: over 7.00 for the first, over 7.00 for the second.

Compared with CCC1=CC2=C(CCO[C@@]23CCN(Cc2cn(CCS(C)(=O)=O)nn2)[C@@H](C)C3)S1(=O)=O [Compound 497, (2′S,4R)-2-ethyl-2′-methyl-1′-[[1-(2-methylsulfonylethyl)triazol-4-yl]methyl]spiro[6,7-dihydrothieno[3,2-c]pyran-4,4′-piperidine]1,1-dioxide], C[C@H]1C[C@@]2(CCN1Cc1cnn(CC3CC4(CCC4)C(=O)O3)c1)OCCc1c2sc(C(F)(F)F)c1CO (stereo partly shown) [Compound 982] is higher in pIC50: 6.30 to 7.00 for the first, over 7.00 for the second.

Work on C[C@H]1C[C@@]2(CCN1Cc1cn[nH]c1)OC[C@](O)(C(F)F)c1cc(Cl)sc12 [Compound 828, (2′S,4S,7R)-2-chloro-4-(difluoromethyl)-2′-methyl-1′-(1H-pyrazol-4-ylmethyl)spiro[5H-thieno[2,3-c]pyran-7,4′-piperidine]-4-ol] yielded a pIC50 of over 7.00.
